{"source": "patent US20090274577A1", "about": "“STE[…] TREATMENT WITH REDUCTANT AND OXIDANT” (priority 2008, published 2009)", "key": {"[1]": {"conditions": "cited from earlier work"}, "[2]": {"tested_on": "Bacillus atrophaeus spores", "experiment": "Filtering test: spores incubated in test solution, filtered, filter half treated with ozone, colonies counted", "assay_type": "cell-based", "conditions": "test solution followed by ~350 ppm ozone, 5 or 10 min", "description": "Bacterial spores: Stainless steel discs with Bacillus atrophaeus spores (log 6, cat #1-6100ST, Raven Biological Laboratories).\nAn ozone generator provided ˜350 ppm O3, and a flow rate of ˜25 l/min, using setting No. 1.\nCommercially available sterile single filters (pore size 0.45 μm) and an analytical test filter funnel from Nalgene was used (F-2161, Sigma-Aldrich). For suction, a Rietschle Thomas DTF 6 vacuum pump was used, with a flow rate of ˜6 m3/h, providing a vacuum of ˜150 mbar abs.\nFiltering test: In filtering test experiments the spore solutions were prepared in a volume of 1 ml and processed. Thereto, after an incubation period of 5 min in the appropriate buffer at 40° C. using a rotary shaker, an aliquot of 250 μl of the suspension was transferred onto a sterile single use filters. The filter was washed two times with 10 ml of sterile water. The filter was retrieved under sterile conditions, and the filter was cut into halves using a sterile scissor. Only one half of the filter was treated with ozone, while the other half was kept as control, i.e. without ozone treatment. Finally, both halves were placed onto a TSA plate and incubated at 30° C. Initially Nutrient Agar plates were used, but later on a switch was made to TSA plates, in order to utilize the more pronounced reddish colour of Bacillus atrophaeus colonies which was facilitating analysis and documentation. […]"}}, "note": "Where two headings read alike, the source gives them in different places.", "data": [{"smiles": "O=[O+][O-]", "note": "[ozone]", "values": [{"measurement": "half-life of ozone in gas", "setting": "[1]; 20 ° C.", "result": "approximately 3 days"}, {"measurement": "half-life of ozone in gas", "setting": "[1]; 250° C.", "result": 1.5, "unit": "s"}, {"measurement": "sterilizing/disinfecting/killing effect (in words)", "setting": "[2]", "result": "increased after 10 min compared to 5 min"}]}]}
